Data: patent US20230000774A1, “METHODS AND COMPOSITIONS PRODUCED THEREBY” (Albumedix Limited, priority 2019, published 2023)
Converted amounts (≈) assume the structure as drawn. Read-outs that look alike come from different tables or passages of the source.

Assays:
[1] = cited from earlier work; for Water Solubility: obtained from DrugBank, rimiducid value provided by Bellicum Pharmaceuticals (estimated); for Solubility in water (literature): unformulated API
[2] = obtained from DrugBank; total charge at pH 7.4; cited from earlier work
[3] = Solubility of APIs in ethanol water mixtures; assay type: physicochemical; conditions: ethanolic solution added to 50:50 EtOH:H2O
Method: APIs were dissolved in ethanol at the desired concentration (Tables 16 and 17). The required volume of this solution was added to a 50:50 solution of ethanol:HPLC grade water with stirring (Table 17).
To prepare the spray drying feed solution the API should preferably be soluble in 40:60 (v/v) ethanol/water mixtures. Any API that precipitated on addition of the ethanolic solution (from the previous section) to a 50:50 solution of EtOH:H2O was eliminated from the study.

DMSO solubility testing = assay type: physicochemical
Method: 1 mL of DMSO was added to a scintillation vial containing approximately 20 mg of Ezetimibe. The sample readily dissolved with gentle mixing.
A solution preparation method that utilised an alternative solvent was investigated. The alternative solvent needed to be similar to ethanol in its ability to dissolve the APIs whilst being miscible with water. Dimethyl sulfoxide (DMSO) was chosen as a promising candidate. Ezetimibe was chosen as a suitable API owing to its favourable COSHH assessment combined with the knowledge of DMSO as a transport agent. The solubility of Ezetimibe in DSMO was assessed by dissolving approx. 20 mg of API in 1 mL of solvent. […] The next step was to assess the API solubility in a mixture of DMSO and water.

physchem = conditions: organic solvent or mixture, thermodynamic from solid
Method: The solubility of nine poorly soluble APIs in ethanol was investigated; Acyclovir, Aripiprazole, Bifonazole, Etravirine, Ezetimibe, Glibenclamide. […] For each API, approximately 20 mg was weighed into a scintillation vial. 3 mL of ethanol was added to each vial. Samples were vortexed until completely dissolved. If after 2 mins the sample was not dissolved, a further 3 mL of ethanol was added, and the sample was vortexed again. After another 2 mins, if the sample was still not dissolved, the API in question was classed as insoluble.
To quickly assess the APIs applicability to this method, the solubility of each API in ethanol was tested.

[4] = Solubility of APIs in D5W solution; assay type: physicochemical; conditions: saline or isotonic, thermodynamic from solid
Method: The solution was sampled after centrifugation (13.5 k rpm for 5 minutes) and the solubility of the APIs was determined by HPLC analysis of the saturated solution.
Analysis was performed on an Agilent 1200 series HPLC employing a Waters, Xbridge Peptide BEH C18 column (150×4.6 mm i.d., 3.5 μm). […] Bifonazole was analysed using a 1 mL/min flow rate of 65:35 HPLC methanol:ammonium acetate (5 g/L, pH 2) with UV detection at 252 nm.

[5] = Drug solubility testing of AP1903 in ethanol and methanol; assay type: physicochemical
Method: Drug solubility testing was undertaken to ascertain the highest concentration of drug solution that could be used for the preparation of the feed solution. […] Both were tested and found to perform similarly, with ˜40 mg of AP1903 dissolving into 1 mLl of solvent.

[6] = Dissolution of curcumin in water and after spray drying with rHA; assay type: physicochemical; conditions: unformulated
[7] = D5W solution, unformulated API, saturated solution, read-out: Solubility in D5W solution

Soluble in EtOH/H2O mixture [3] | solubility (physchem; Soluble (>[…]) in EtOH?) [µg/mL] | SMILES | Water Solubility [1] | Physiological Charge [2] | other results
– | – | C=CC[C@@H]1/C=C(\C)C[C@H](C)C[C@H](OC)[C@H]2O[C@@](O)(C(=O)C(=O)N3CCCC[C@H]3C(=O)O[C@H](/C(C)=C/[C@@H]3CC[C@@H](O)[C@H](OC)C3)[C@H](C)[C@@H](O)CC1=O)[C@H](C)C[C@@H]2OC [Tacrolimus] | 4.02 µg/mL | 0 | –
Yes | > 1200 | O=C1[C@H](CC[C@H](O)c2ccc(F)cc2)[C@@H](c2ccc(O)cc2)N1c1ccc(F)cc1 [Ezetimibe] | 8.46 µg/mL | 0 | Solubility in water (literature) [1]: 8.5 µg/mL (≈ 20.8 µM); solubility in a mixture of DMSO and water (DMSO solubility testing; addition to a 50:50 DMSO:water mixture): remained in solution; solubility in DMSO (DMSO solubility testing; approx. 20 mg of API in 1 mL of DMSO): dissolved readily with gentle agitation; solubility at 2 min [4, 7]: 3.4 µg/mL (≈ 8.3 µM)
No | > 1200 | O=C1CCc2ccc(OCCCCN3CCN(c4cccc(Cl)c4Cl)CC3)cc2N1 [Aripiprazole] | – | – | solubility (physchem; approximate concentration in ethanol at which completely solubilised): ~2200 µg/mL (≈ 4910 µM)
Yes | > 1200 | O=C1NC(=O)C(c2ccccc2)(c2ccccc2)N1 [Phenytoin] | 71.1 µg/mL | 0 | Solubility in water (literature) [1]: 71.1 µg/mL (≈ 282 µM); solubility at 2 min [4, 7]: 14.1 µg/mL (≈ 55.9 µM)
– | – | CC[C@H](C(=O)N1CCCC[C@H]1C(=O)O[C@H](CCc1ccc(OC)c(OC)c1)c1cccc(OCC(=O)NCCNC(=O)COc2cccc([C@@H](CCc3ccc(OC)c(OC)c3)OC(=O)[C@@H]3CCCCN3C(=O)[C@@H](CC)c3cc(OC)c(OC)c(OC)c3)c2)c1)c1cc(OC)c(OC)c(OC)c1 [AP1903, 1,2-Ethanediylbis[imino(2-oxo-2,1-ethanediyl)oxy-3,1-phenylene(1R)-3-(3,4-dimethoxyphen-yl)-1,1-propanediyl] (2S,2'S)bis{1-[(2S)-2-(3,4,5-trimethoxyphenyl)butanoyl]-2-piperidine-carboxylate}] | approximately 0.000001 mg/mL | 0 | Water Solubility ([1]; listed as Rimiducid (AP1903)): 0.001 µg/mL; water solubility (estimated) ([1]; provided by Bellicum Pharmaceuticals): 0.7 nM (≈ 0.988 ng/mL); amount of AP1903 dissolving in ethanol ([5]; dissolving into 1 mL of ethanol): ~40 mg; amount of AP1903 dissolving in methanol ([5]; dissolving into 1 mL of methanol): ~40 mg
– | < 1200 | COc1ccc(Cl)cc1C(=O)NCCc1ccc(S(=O)(=O)NC(=O)NC2CCCCC2)cc1 [Glibenclamide] | – | – | –
Yes | > 1200 | Cc1cccc(C)c1OCC(=O)N[C@@H](Cc1ccccc1)[C@@H](O)C[C@H](Cc1ccccc1)NC(=O)[C@H](C(C)C)N1CCCNC1=O [Lopinavir] | 1.92 µg/mL | – | Solubility in water (literature) [1]: 1.9 µg/mL (≈ 3.02 µM); solubility at 2 min [4]: 14.9 µg/mL (≈ 23.7 µM)
– | – | CC(C)c1nc(CN(C)C(=O)N[C@H](C(=O)N[C@@H](Cc2ccccc2)C[C@H](O)[C@H](Cc2ccccc2)NC(=O)OCc2cncs2)C(C)C)cs1 [Ritonavir] | – | 0 | –
– | < 1200 | Nc1nc2c(ncn2COCCO)c(=O)[nH]1 [Acyclovir] | – | – | –
– | – | CO[C@H]1C[C@@H]2CC[C@@H](C)[C@@](O)(O2)C(=O)C(=O)N2CCCC[C@H]2C(=O)O[C@H]([C@H](C)C[C@@H]2CC[C@@H](O)[C@H](OC)C2)CC(=O)[C@H](C)/C=C(\C)[C@@H](O)[C@@H](OC)C(=O)[C@H](C)C[C@H](C)/C=C/C=C/C=C/1C [Rapamycin (sirolimus), Rapamycin] | 1.73 µg/mL | – | –
Yes | > 1200 | c1ccc(-c2ccc(C(c3ccccc3)n3ccnc3)cc2)cc1 (stereo not drawn) [Bifonazole] | 2.45 µg/mL | 0 | Solubility in water (literature) [1]: 2.5 µg/mL (≈ 8.05 µM); solubility at 2 min [4]: 3.5 µg/mL (≈ 11.3 µM)
– | < 1200 | Cc1cc(C#N)cc(C)c1Oc1nc(Nc2ccc(C#N)cc2)nc(N)c1Br [Etravirine] | 16.9 µg/mL | 0 | –
– | – | COc1cc(/C=C/C(=O)CC(=O)/C=C/c2ccc(O)c(OC)c2)ccc1O [Curcumin] | – | – | Water Solubility [6]: poorly water soluble
– | – | C#C[C@]1(O)CC[C@H]2[C@@H]3CCC4=Cc5oncc5C[C@]4(C)[C@H]3CC[C@@]21C [Danazol] | – | 0 | –
